Laboratory results as given in patent US12612412B2, “Antiviral heterocyclic compounds” (Enanta Pharmaceuticals, Inc., priority 2021, dated 2026).

The compounds below were run on genotype A, "Long" strain RSV (assay: RSV-A assay (CPE protection in Hep-2 cells, ATPlite readout)). Conditions: human respiratory syncytial virus, RSV-A Long strain, MOI 0.1, CPE protection, read-out: Human RSV-A (“Long”) EC50.
Assay type: cell-based, Human respiratory syncytial virus (HRSV)
In short: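 Compound effect on RSV-induced CPE: Hep-2 monolayers, MOI 0.1, duplicate 2-fold titrations, 5-day culture in 10% FBS DMEM. Readout is ATP-based luminescence, normalised to virus-only and no-virus controls, giving EC50.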

EC50 [nM] | SMILES
> 200 | COc1cc(C(=O)NC[C@](O)(c2cc3c(c(-c4ccc(F)cc4)n2)OC[C@]3(C)C(N)=O)C(F)(F)F)cn2nc(C3CC3)cc12 [Example 879]
> 200 | COc1cc(C(=O)NC[C@](O)(c2cc3c(c(-c4ccc(F)c(Cl)c4)n2)OC[C@]3(C)C(N)=O)C(F)(F)F)cn2nc(C3CC3)cc12 [Example 880]
< 200 | COc1cc(C(=O)NC[C@](O)(c2cc3c(c(-c4ccc(F)cc4)n2)OC[C@]3(C)C(N)=O)C(F)(F)F)cn2nc(N)cc12 [Example 881]
> 200 | COc1cc(C(=O)NCC(O)(c2cc3c(c(Br)n2)OC[C@]3(C)C(N)=O)C(F)(F)F)cc2cn(C3CC3)nc12 (some centres unmarked) [Example 890]
> 200 | COc1cc(C(=O)NC[C@@](O)(c2cc3c(c(-c4ccc(C5CC5)cc4)n2)OC[C@]3(C)C(N)=O)C(F)(F)F)cc2cn(C3CC3)nc12 [Example 892]
> 200 | COc1cc(C(=O)NC[C@@](O)(c2cc3c(c(-c4ccc5c(c4)OC(F)(F)O5)n2)OC[C@]3(C)C(N)=O)C(F)(F)F)cc2cn(C3CC3)nc12 [Example 894]
> 200 | COc1cc(C(=O)NC[C@@](O)(c2cc3c(c(-c4ccc(C(F)F)cc4)n2)OC[C@]3(C)C(N)=O)C(F)(F)F)cc2cn(C3CC3)nc12 [Example 895]

Same assay, conditions: human respiratory syncytial virus, genotype A “Long” strain RSV, MOI 0.1, CPE protection, read-out: Human RSV-A (“Long”)

SMILES | EC50 [nM]
C[C@]1(C(N)=O)COc2c1cc([C@@](O)(CNC(=O)c1ccn3nccc3n1)C(F)(F)F)nc2-c1ccc(F)cc1 [Example 433] | > 200
C[C@]1(C(N)=O)COc2c1cc([C@@](O)(CNC(=O)c1cc3cc(F)ccc3s1)C(F)(F)F)nc2-c1ccc(F)cc1 [Example 434] | > 200
Cc1c(C(=O)NC[C@](O)(c2cc3c(c(-c4ccc(F)cc4)n2)OC[C@]3(C)C(N)=O)C(F)(F)F)sc2ccccc12 [Example 435] | > 200
C[C@]1(C(N)=O)COc2c1cc([C@@](O)(CNC(=O)c1cnc3cnccn13)C(F)(F)F)nc2-c1ccc(F)cc1 [Example 436] | > 200
CC(C)c1csc(C(=O)NC[C@](O)(c2cc3c(c(-c4ccc(F)cc4)n2)OC[C@]3(C)C(N)=O)C(F)(F)F)n1 [Example 437] | > 200
C[C@]1(C(N)=O)COc2c1cc([C@@](O)(CNC(=O)c1ccc3[nH]ccc3c1F)C(F)(F)F)nc2-c1ccc(F)cc1 [Example 438] | > 200
C[C@]1(C(N)=O)COc2c1cc([C@@](O)(CNC(=O)c1cnn3ccncc13)C(F)(F)F)nc2-c1ccc(F)cc1 [Example 439] | > 200
COc1cc2ccc(C(=O)NC[C@](O)(c3cc4c(c(-c5ccc(F)cc5)n3)OC[C@]4(C)C(N)=O)C(F)(F)F)cc2cc1OC [Example 440] | < 200
COC(=O)C12CC(C(=O)NC[C@](O)(c3cc4c(c(-c5ccc(F)cc5)n3)OC[C@]4(C)C(N)=O)C(F)(F)F)(C1)C2 [Example 442] | > 200
C[C@]1(C(N)=O)COc2c1cc([C@@](O)(CNC(=O)c1cn(-c3ccccc3)nc1-c1ccccc1)C(F)(F)F)nc2-c1ccc(F)cc1 [Example 443] | > 200
C[C@]1(C(N)=O)COc2c1cc([C@@](O)(CNC(=O)c1cnn(-c3ccccc3)c1)C(F)(F)F)nc2-c1ccc(F)cc1 [Example 444] | < 200
Cn1cc(C(=O)NC[C@](O)(c2cc3c(c(-c4ccc(F)cc4)n2)OC[C@]3(C)C(N)=O)C(F)(F)F)c(-c2ccccc2)n1 [Example 445] | > 200
C[C@]1(C(N)=O)COc2c1cc([C@@](O)(CNC(=O)c1c[nH]nc1-c1ccccc1)C(F)(F)F)nc2-c1ccc(F)cc1 [Example 446] | > 200
COc1cccc(-c2nn(-c3ccccc3)cc2C(=O)NC[C@](O)(c2cc3c(c(-c4ccc(F)cc4)n2)OC[C@]3(C)C(N)=O)C(F)(F)F)c1 [Example 447] | > 200
COc1cccc(-c2n[nH]cc2C(=O)NC[C@](O)(c2cc3c(c(-c4ccc(F)cc4)n2)OC[C@]3(C)C(N)=O)C(F)(F)F)c1 [Example 448] | > 200
COc1cccc(-n2cc(C(=O)NC[C@](O)(c3cc4c(c(-c5ccc(F)cc5)n3)OC[C@]4(C)C(N)=O)C(F)(F)F)cn2)c1 [Example 449] | > 200
COc1ccc(-n2cc(C(=O)NC[C@](O)(c3cc4c(c(-c5ccc(F)cc5)n3)OC[C@]4(C)C(N)=O)C(F)(F)F)cn2)cc1 [Example 450] | > 200

SMILES | EC50 [nM]
C[C@]1(C(N)=O)COc2c1cc([C@@](O)(CNC(=O)c1cnn(-c3ccc(F)cc3)c1)C(F)(F)F)nc2-c1ccc(F)cc1 [Example 451] | > 200
Cc1nn(-c2ccccc2)cc1C(=O)NC[C@](O)(c1cc2c(c(-c3ccc(F)cc3)n1)OC[C@]2(C)C(N)=O)C(F)(F)F [Example 452] | < 200
Cc1nn(-c2ccccc2)c(C)c1C(=O)NC[C@](O)(c1cc2c(c(-c3ccc(F)cc3)n1)OC[C@]2(C)C(N)=O)C(F)(F)F [Example 453] | > 200
C[C@]1(C(N)=O)COc2c1cc([C@@](O)(CNC(=O)c1cnn(-c3ccccc3F)c1)C(F)(F)F)nc2-c1ccc(F)cc1 [Example 454] | < 200
C[C@]1(C(N)=O)COc2c1cc([C@@](O)(CNC(=O)c1cnn(-c3ccc(C(F)(F)F)cc3)c1)C(F)(F)F)nc2-c1ccc(F)cc1 [Example 455] | > 200
C[C@]1(C(N)=O)COc2c1cc([C@@](O)(CNC(=O)c1cnn(-c3ccccc3)c1C(F)(F)F)C(F)(F)F)nc2-c1ccc(F)cc1 [Example 456] | > 200
C[C@]1(C(N)=O)COc2c1cc([C@@](O)(CNC(=O)c1cn(-c3ccccc3)nc1C(F)(F)F)C(F)(F)F)nc2-c1ccc(F)cc1 [Example 457] | > 200
Cc1c(C(=O)NC[C@](O)(c2cc3c(c(-c4ccc(F)cc4)n2)OC[C@]3(C)C(N)=O)C(F)(F)F)cnn1-c1ccccc1 [Example 458] | < 200
C[C@]1(C(N)=O)COc2c1cc([C@@](O)(CNC(=O)c1cnn(C3CC3)c1)C(F)(F)F)nc2-c1ccc(F)cc1 [Example 461] | < 200
Cc1nc(C2CC2)sc1C(=O)NC[C@](O)(c1cc2c(c(-c3ccc(F)cc3)n1)OC[C@]2(C)C(N)=O)C(F)(F)F [Example 462] | < 200
CC[C@@]1(C(N)=O)COc2c1cc([C@@](O)(CNC(=O)c1cc(OC)c3nn(C4CC4)cc3c1)C(F)(F)F)nc2-c1ccc(F)cc1 [Example 463] | < 200
CC[C@]1(C(N)=O)COc2c1cc([C@@](O)(CNC(=O)c1cc(OC)c3nn(C4CC4)cc3c1)C(F)(F)F)nc2-c1ccc(F)cc1 [Example 464] | < 200
C[C@]1(C(N)=O)COc2c1cc([C@@](O)(CNC(=O)c1csc(-c3ccccc3)n1)C(F)(F)F)nc2-c1ccc(F)cc1 [Example 482] | > 200
Cc1sc(-c2ccccc2)nc1C(=O)NC[C@](O)(c1cc2c(c(-c3ccc(F)cc3)n1)OC[C@]2(C)C(N)=O)C(F)(F)F [Example 483] | > 200
C[C@]1(C(N)=O)COc2c1cc([C@@](O)(CNC(=O)c1cnc(-c3ccccc3F)s1)C(F)(F)F)nc2-c1ccc(F)cc1 [Example 484] | > 200
Cc1nc(-c2ccccc2F)sc1C(=O)NC[C@](O)(c1cc2c(c(-c3ccc(F)cc3)n1)OC[C@]2(C)C(N)=O)C(F)(F)F [Example 485] | > 200

Second part, the compound after the results:

EC50 [nM] | SMILES
< 200 | C[C@]1(C(N)=O)COc2c1cc([C@@](O)(CNC(=O)c1cccc3nc(N)sc13)C(F)(F)F)nc2-c1ccc(F)cc1 [Example 490]
< 200 | C[C@]1(C(N)=O)COc2c1cc([C@@](O)(CNC(=O)c1ccn3nc(C4CC4)cc3c1)C1CC1)nc2-c1ccc(F)c(Cl)c1 [Example 492]
< 200 | COc1cc(C(=O)NC[C@](O)(c2cc3c(c(-c4ccc(F)cc4Cl)n2)OC[C@]3(C)C(N)=O)C2CC2)cc2cn(C3CC3)nc12 [Example 535]
< 200 | COc1cc(C(=O)NC[C@](O)(c2cc3c(c(-c4cnc(C#N)c(Cl)c4)n2)OC[C@]3(C)C(N)=O)C(F)(F)F)cc2cc(Cl)c(C)nc12 [Example 584]
< 200 | COc1cc(C(=O)NC[C@](O)(c2cc3c(c(-c4ccc(F)c(Cl)c4)n2)OC[C@]3(C)C(N)=O)C2CC2)cn2cc(C3CC3)nc12 [Example 634]
> 200 | COc1cc(C(=O)NC[C@@](O)(c2cc3c(c(-c4ccc(F)c(C)c4)n2)OC[C@]3(C)C(N)=O)C(F)(F)F)cc2cn(C3CC3)nc12 [Example 635]
< 200 | C[C@]1(C(N)=O)COc2c1cc([C@@](O)(CNC(=O)c1ccnc3cc[nH]c13)C(F)(F)F)nc2-c1ccc2c(c1)OC(F)(F)O2 [Example 701]
> 200 | Cc1ccn2cc(C(=O)NC[C@](O)(c3cc4c(c(-c5ccc(F)cc5)n3)OC[C@]4(C)C(N)=O)C(F)(F)F)nc2c1 [Example 805]
> 200 | Cc1cccn2cc(C(=O)NC[C@](O)(c3cc4c(c(-c5ccc(F)cc5)n3)OC[C@]4(C)C(N)=O)C(F)(F)F)nc12 [Example 806]
> 200 | Cc1cccc2nc(C(=O)NC[C@](O)(c3cc4c(c(-c5ccc(F)cc5)n3)OC[C@]4(C)C(N)=O)C(F)(F)F)cn12 [Example 807]
< 200 | C[C@]1(C(N)=O)COc2c1cc([C@@](O)(CNC(=O)c1cn3cc(Cl)ccc3n1)C(F)(F)F)nc2-c1ccc(F)cc1 [Example 808]
> 200 | C[C@]1(C(N)=O)COc2c1cc([C@@](O)(CNC(=O)c1cn3cc(F)ccc3n1)C(F)(F)F)nc2-c1ccc(F)cc1 [Example 809]
> 200 | C[C@]1(C(N)=O)COc2c1cc([C@@](O)(CNC(=O)c1cn3cc(C(F)(F)F)ccc3n1)C(F)(F)F)nc2-c1ccc(F)cc1 [Example 810]
> 200 | CC(C)Oc1ccc2nc(C(=O)NC[C@](O)(c3cc4c(c(-c5ccc(F)cc5)n3)OC[C@]4(C)C(N)=O)C(F)(F)F)cn2c1 [Example 812]
> 200 | C[C@]1(C(N)=O)COc2c1cc([C@@](O)(CNC(=O)c1cn3cc(OC4CC4)ccc3n1)C(F)(F)F)nc2-c1ccc(F)cc1 [Example 813]
> 200 | C[C@]1(C(N)=O)COc2c1cc([C@@](O)(CNC(=O)c1cn3cc(OC(F)(F)F)ccc3n1)C(F)(F)F)nc2-c1ccc(F)cc1 [Example 814]
